This series is classed as in vitro ADME, human. The procedure: To determine if microfabricated microneedles could be used to enhance transdermal drug delivery, arrays of microneedles were made using a deep plasma etching technique. Their ability to penetrate human skin without breaking was tested and the resulting changes in transdermal transport were measured.
Arrays of microneedles were fabricated having extremely sharp tips (radius of curvature less than 1 μm), and are approximately 150 μm long. Because the skin surface is not flat due to dermatoglyphics and hair, the full length of these microneedles will not penetrate the skin. All experiments were performed at room temperature (23±2° C.).
To quantitatively assess the ability of microneedles to increase transdermal transport, calcein permeability of human epidermis with and without inserted microneedle arrays was measured. Calcein crosses skin very poorly under normal circumstances and therefore represents an especially difficult compound to deliver.
Insertion of microneedles into skin was capable of dramatically increasing permeability to calcein. When microneedles were inserted and left embedded in the skin, calcein permeability was increased by more than 1000-fold. Insertion of microneedles for 10 s, followed by their removal, yielded an almost 10,000-fold increase. […]

As for `O=C(O)CN(CC(=O)O)Cc1cc2c(cc1O)Oc1cc(O)c(CN(CC(=O)O)CC(=O)O)cc1C21OC(=O)c2ccccc21` [Calcein], the “Passive permeability across unaltered skin” value is reported as “very low”. Further, for the setting “human”, the “Increase in skin permeability to calcein” value is recorded as “about 25,000 fold”.

Source of the values: patent US6743211B1, “Devices and methods for enhanced microneedle penetration of biological barriers” (Georgia Tech Research Corporation, priority 1999, dated 2004).
